In experiment [1] the test system is Pseudomonas aeruginosa. The experiment can be described thus: MIC of doxycycline (Example 32). The class given is cell-based. To be noted: alone, or with FNa 8 ppm / Fli 8 ppm. The source says:
The MIC of doxycycline was studied on pseudomonas aeruginosa (wild-type hospital strain) in the same conditions as for example 31.

In experiment [2] the test system is Escherichia coli ATCC 25922. The experiment can be described thus: Antibiotic activity of patient's blood after administration, inhibition holes methodology. The class given is in vivo. The source says: The efficiency in vivo of the administration of doxycycline in presence of Fli has been measured and compared with the efficiency of the administration of doxycycline alone.
The antibiotic composition (doxycycline alone or with Fli) has been administered to a healthy patient, and the antibiotic activity of the patient's blood has been determined before the first administration, the day of the administration, and three days later. The delay of three days is necessary because of the low solubility of Fli: the pertinent concentration of Fli is only obtained after the end of the second day after its administration.
The patient had taken the antibiotic during the three days, 2 capsules of 250 mg each day at 8 a.m. A blood sample was taken 3 hours after each administration.
And the antibiotic activity was twice determined by a microbiological titration using the inhibition holes methodology on a standard strain ATCC 25922 of Escherichia coli.
Holes of […] diameter were made on a Mueller Hinton agar and 100 μl of plasma were injected in each hole. The agar was then seeded with an inoculum of Escherichia coli of […].
After an incubation of 24 hours at 37° C., the diameters around each holes (in which the strain was killed) were read.
In the first trial, the capsules of 250 mg were constituted of 110 mg of doxycycline chlorhydrate and of lactose.
The second trial was conducted similarly with gelules of 250 mg constituted of 110 mg of doxycycline, 53 mg of Fli and lactose.

The next experiment has as its system Klebsiella pneumonia. Put plainly: Phenotype of resistant wild-type hospital strains with activated antibiotics (Example 35). The class given is cell-based. To be noted: Fli 4 ppm. Here is the method: (§1) Strains Gram+ and Gram- (wild-type hospital) having a resistant phenotype vis a vis standard firstly and secondly used antibiotherapy were experimented on activated antibiotics.
(§2) 250 experiments were conducted on the following strains: Streptococcus group B, C, D, F, G, Staphylococcus aureus, Staphylococcus epidermitis, Klebsiella pneumoniae, Klebsiella spirochete, Klebsiella oxytoca, Proteus mirabilis, Serratia marcescens, Escherichia coli, Citrobacter freundii, Enterobacter cloacae, Enterobacter calcoaceticus, Salmonella spirochete, Salmonella typhimurium, Pseudomonas aeruginosa, Haemophilus influenzae, Haemophilus sphrophilus, Acinetobacter calcoaeticus. […]

In experiment [3] the test system is Pseudomonas aeruginosa. The experiment can be described thus: MIC of antibiotics by microdilution in liquid medium on plates (Example 18). The class given is cell-based. To be noted: Pseudomonas aeruginosa, read-out: MIC (average MIC value). The method, then:
The unicellular living organism chosen for the trials is Pseudomonas aeruginosa (wild-type strain originating from hospital sources).
The same methodology as for Examples 11 and 12 was follows. Bacteriostatic analyses were performed with a number of antibiotics belonging to benzylpenicillins, and aminopenicillins, and first and second generation cephalosporins, namely:
The determination of the MIC was carried out by the microdilution method in liquid medium on plates. Aqueous solutions of each antibiotic are prepared in MUELLER HINION broth, to obtain dilutions in a geometric ratio of 2. The solvent is sterile double-distilled water.
The preparation of the bacterial inoculum is made with a culture of Pseudomonas aeruginosa, with agitation on a water bath at 37° C. for 4 to 6 hours, giving 10^6 bacteria/ml.
Three trials were performed per antibiotic and per bacterial inoculum. The trials were performed first with the antibiotics alone (trials a).sctn., and then with the addition of a dose of 1 mg/l of an aqueous solution of lithium fluoride (trials b).sctn. to the dilution of each one in every cup of every plate.
For orientation: Broth dilution looks for growth in wells or tubes with falling amounts of substance.

The next experiment relates to streptococcus group F. The experiment can be described thus: Phenotype of resistant wild-type hospital strains with activated antibiotics (Example 35). The class given is cell-based. To be noted: Fli 4 ppm. Here is the method: as §1, §2
In experiment [4] the test system is Staphylococcus aureus. The experiment can be described thus: Activity on wild-type hospital strains responsible for skin infections. The class given is cell-based.
In experiment [5] the test system is Escherichia coli. The description is as above. The class given is cell-based.
Experiment [6] relates to Group C streptococcus. Described as above. The class given is cell-based.
Experiment [7] relates to Staphylococcus aureus. The experiment can be described thus: microbe, parasite or virus in culture. To be noted: read-out: MIC alone (MIC A, MIC B).
Method: (§3) Concentration series of two antibiotic substances A and B are prepared in the geometric ratio of 2 are combined and the following values are determined:
(§4) MIC B/A = minimal inhibiting concentration B in presence of A [formula]
(§5) The MIC of the bacteriostatic effect is read when the percentage of surviving strains is less or equal to 1%.
(§6) The combination of the substances A and B is synergistic as regards the bacteriostatic effect when FIC≤0,75. The combination is additive when FIC=1. The combination is insensible when 1<FIC≤2. The combination is antagonistic when FIC>2.
(§7) Substance A was tetracycline (concentration serie from 0,25 to 128 mg/l)
(§8) Substance B was Fli (concentration serie from 0,25 to 16 mg/l)
(§9) The strain was staphylococcus aureus (wild-type hospital resistant strain)
Experiment [8] has as its system Klebsiella pneumoniae.
Experiment [9] relates to Klebsiella pneumoniae. The experiment can be described thus: microbe, parasite or virus in culture.
Method: The MIC of tetracycline was studied on Klebsiella pneumoniae (wild-type hospital strain).
The trial was conducted with tetracycline alone, tetracycline in presence of FNa and tetracycline in presence of Fli.
The subject of experiment [10] is Staphylococcus aureus. To be noted: A (tetracycline) in presence of B (Fli).
Method: as §3, §4, §5, §6, §7, §8, §9
For experiment [11], the system named is Haemophilus influenzae.
Experiment [12] concerns Escherichia coli. Put plainly: Antibiotic activity of ampicillin (Example 24). The class given is cell-based.
Experiment [13] relates to Pseudomonas aeruginosa. The experiment can be described thus: Antibiotic activity of ampicillin (Example 24). The class given is cell-based. To be noted: read-out: minimal inhibitory concentration.
The test system of the next experiment is Streptococcus faecalis. Put plainly: Antibiotic activity of ampicillin (Example 24). The class given is cell-based. Particulars: Enterococcus faecalis, read-out: minimal inhibitory concentration.
In experiment [14] the test system is Staphylococcus aureus. The experiment can be described thus: Antibiotic activity of ampicillin (Example 24). The class given is cell-based. Particulars: read-out: minimal inhibitory concentration.
Experiment [15] deals with Group C streptococcus. Put plainly: Antibiotic activity of ampicillin (Example 24). Particulars: read-out: minimal inhibitory concentration. The class given is cell-based.
The next experiment concerns Entrococcus faecium. Put plainly: Antibiotic activity of ampicillin (Example 24). The class given is cell-based. Particulars: resistant to ampicillin, read-out: minimal inhibitory concentration.
Experiment [16] has as its system Haemophilus influenzae. Put plainly: Antibiotic activity of ampicillin (Example 24). The class given is cell-based. Particulars: read-out: minimal inhibitory concentration.
[17] abbreviates: read-out: 100% inhibitory concentration, alone.
Setting [18] is: LiF 0.8 mg/l, multiresistant strains often producing beta-lactamase.
The mark [19] stands for this setting: alone, multiresistant strains often producing beta-lactamase.

In brackets after ≈: the same amount, converted by molar mass. Like-named read-outs stand apart in the source and are kept apart here.

This note sets out measurements from patent US5800838A, “Composition that inhibits or destroys at least one unicellular living organism containing fluorine F- and Lithium li+” (priority 1987, dated 1998).

For the compound `C[C@H]1c2cccc(O)c2C(=O)C2=C(O)[C@]3(O)C(=O)C(C(N)=O)=C(O)[C@@H](N(C)C)[C@@H]3[C@@H](O)[C@@H]21` [DOXYCYCLINE, doxycycline], the MIC in the experiment with Pseudomonas aeruginosa [1] was 1000 µg/mL. The inhibition diameter in experiment [2] (J0, day before the first administration, healthy patient, plasma) is given as 7 mm; in [2] (J1, day of the first administration, 2 capsules each day, blood 3 hours after administration), 8-9 mm; in [2] (J3, third day of administration, 2 capsules each day, blood 3 hours after administration), 11-12 mm.
Take `CCN1CCN(C(=O)N[C@@H](C(=O)N[C@@H]2C(=O)N3C(C(=O)O)=C(CSc4nnnn4C)CS[C@H]23)c2ccc(O)cc2)C(=O)C1=O` [CEFOPERAZONE, cefoperazone]: in the experiment on Klebsiella pneumonia, the “phenotype in presence of Fli” value is “the resistant phenotype was not changed”. In addition, the MIC with Pseudomonas aeruginosa [3] (+ LiF 1 mg/l, strain lic R βLac^+ OXA) was 64 µg/mL; in the experiment with Pseudomonas aeruginosa [3] (+ LiF 1 mg/l, strain lic R βLac^+ PSE), 32 µg/mL; with Pseudomonas aeruginosa [3] (+ LiF 1 mg/l, strain lic R βLac^+ TEM), 32 µg/mL; in the experiment on Pseudomonas aeruginosa [3] (+ LiF 1 mg/l, strain lic R βLac^+ cephalosporinase), 64 µg/mL; with Pseudomonas aeruginosa [3] (+ LiF 1 mg/l, strain lic S βLac^- (first column)), 4 µg/mL; in the experiment with Pseudomonas aeruginosa [3] (+ LiF 1 mg/l, strain lic S βLac^- (second column)), 16 µg/mL. The MIC in the experiment with Pseudomonas aeruginosa [3] (alone, strain lic R βLac^+ OXA) came to 64 µg/mL; in the experiment on Pseudomonas aeruginosa [3] (alone, strain lic R βLac^+ PSE), 64 µg/mL; with Pseudomonas aeruginosa [3] (alone, strain lic R βLac^+ TEM), 32 µg/mL; in the experiment with Pseudomonas aeruginosa [3] (alone, strain lic R βLac^+ cephalosporinase), 64 µg/mL; with Pseudomonas aeruginosa [3] (alone, strain lic S βLac^- (first column)), 8 µg/mL; with Pseudomonas aeruginosa [3] (alone, strain lic S βLac^- (second column)), 16 µg/mL.
Turning to `CC1(C)S[C@@H]2[C@H](NC(=O)Cc3ccccc3)C(=O)N2[C@H]1C(=O)O` [penicilline group G], the “phenotype in presence of Fli” value in the experiment on streptococcus group F is “the insensible phenotype was not changed”.
As for POLYMIXIN B, the 100% inhibitory concentration was more than 128 ppm in the experiment on Staphylococcus aureus [4] (alone); 64 ppm in the experiment on Staphylococcus aureus [4] (in the presence of LiF 2 ppm); more than 128 ppm in the experiment with Escherichia coli [5] (alone); 64 ppm in the experiment with Escherichia coli [5] (in the presence of LiF 2 ppm); more than 128 ppm with Group C streptococcus [6] (alone); 64 ppm with Group C streptococcus [6] (in the presence of LiF 8 ppm).
Turning to `CN(C)C1C(=O)C(C(N)=O)=C(O)C2(O)C(=O)C3=C(O)c4c(O)cccc4C(C)(O)C3CC12` (stereo not drawn) [TETRACYCLINE, tetracycline], the MIC in the experiment with Staphylococcus aureus [7] is 32 µg/mL (≈ 72 µM); in the experiment with Klebsiella pneumoniae [8] (setting [17]), 0.5 µg/mL (≈ 1.13 µM); in the experiment on Klebsiella pneumoniae [8] (read-out: 100% inhibitory concentration, in the presence of LiF 2 ppm) it was 0.25 µg/mL; with Klebsiella pneumoniae [9] it was 512 µg/mL (≈ 1150 µM); in the experiment on Haemophilus influenzae [11] (setting [17]) it was 4 to 8 µg/mL (≈ 9 to 18 µM); in the experiment with Haemophilus influenzae [11] (read-out: 100% inhibitory concentration, in the presence of LiF 4 ppm), 2 to 4 µg/mL. Moreover, in the experiment with Staphylococcus aureus [10], the “MIC A/B” value came to 4 mg/L.
Regarding `CC1(C)S[C@@H]2[C@H](NC(=O)[C@H](N)c3ccccc3)C(=O)N2[C@H]1C(=O)O` [AMPICILLIN, ampicillin], the MIC in the experiment on Escherichia coli [12] (ATCC25, LiF 1 mg/l, ATCC 25 922, read-out: minimal inhibitory concentration) was 2 µg/mL (≈ 5.72 µM); in the experiment with Escherichia coli [12] (ATCC25, alone, ATCC 25 922, read-out: minimal inhibitory concentration) it was 4 µg/mL (≈ 11.4 µM); with Escherichia coli [12] (LiF 0.8 mg/l, multiresistant strains often producing beta-lactamase, read-out: minimal inhibitory concentration) it was 8 µg/mL (≈ 22.9 µM); in the experiment with Escherichia coli [12] (LiF 5 mg/l, 10 wild-type strains, read-out: minimal inhibitory concentration), 1 to 4 µg/mL (≈ 2.86 to 11.4 µM); in the experiment with Escherichia coli [12] (LiF 5 mg/l, resistant Escherichia coli, read-out: minimal inhibitory concentration), 8 µg/mL (≈ 22.9 µM); in the experiment on Escherichia coli [12] (alone, 10 wild-type strains, read-out: minimal inhibitory concentration), 2 to 8 µg/mL (≈ 5.72 to 22.9 µM). Further, the MIC with Escherichia coli [12] (alone, multiresistant strains often producing beta-lactamase, read-out: minimal inhibitory concentration) is 64 µg/mL (≈ 183 µM); with Escherichia coli [12] (alone, resistant Escherichia coli, read-out: minimal inhibitory concentration), 64 µg/mL (≈ 183 µM); in the experiment with Pseudomonas aeruginosa [13] (setting [18]), 4 to 8 µg/mL (≈ 11.4 to 22.9 µM); with Pseudomonas aeruginosa [13] (LiF 5 mg/l), 4 to 8 µg/mL (≈ 11.4 to 22.9 µM); in the experiment on Pseudomonas aeruginosa [13] (setting [19]), 16 to 32 µg/mL (≈ 45.8 to 91.6 µM); in the experiment on Pseudomonas aeruginosa [13] (alone) it was 16 to 32 µg/mL (≈ 45.8 to 91.6 µM). Further, the MIC with Streptococcus faecalis (ATCC25, LiF 5 mg/l, ATCC 25 212) is 4 µg/mL (≈ 11.4 µM); with Streptococcus faecalis (ATCC25, alone, ATCC 25 212), 8 µg/mL (≈ 22.9 µM); in the experiment with Streptococcus faecalis (LiF 5 mg/l, 10 wild-type strains), 2 µg/mL (≈ 5.72 µM); in the experiment on Streptococcus faecalis (alone, 10 wild-type strains), 4 to 8 µg/mL (≈ 11.4 to 22.9 µM); in the experiment on Staphylococcus aureus [14] (setting [18]) it was 32 µg/mL (≈ 91.6 µM); with Staphylococcus aureus [14] (LiF 1 mg/l, resistant to ampicillin, 10 strains) it was 64 µg/mL (≈ 183 µM). In addition, the MIC in the experiment with Staphylococcus aureus [14] (LiF 6 mg/l, resistant to ampicillin, strains producing beta-lactamase) is 64 µg/mL (≈ 183 µM); in the experiment on Staphylococcus aureus [14] (setting [19]), more than 128 µg/mL; with Staphylococcus aureus [14] (alone, resistant to ampicillin, 10 strains), more than 128 µg/mL; with Staphylococcus aureus [14] (alone, resistant to ampicillin, strains producing beta-lactamase), more than 128 µg/mL; with Group C streptococcus [15] (setting [18]), 64 µg/mL (≈ 183 µM); in the experiment with Group C streptococcus [15] (LiF 1 mg/l), 8 µg/mL (≈ 22.9 µM). For the same compound, the MIC with Group C streptococcus [15] (setting [19]) is 256 µg/mL (≈ 733 µM); with Group C streptococcus [15] (alone) it was 32 µg/mL (≈ 91.6 µM); with Entrococcus faecium (LiF 5 mg/l) it was 64 µg/mL (≈ 183 µM); in the experiment with Entrococcus faecium (alone), more than 128 µg/mL; in the experiment with Haemophilus influenzae [16] (setting [18]), 32 µg/mL (≈ 91.6 µM); with Haemophilus influenzae [16] (LiF 5 mg/l, resistant to ampicillin, 5 wild-type strains) it was 32 µg/mL (≈ 91.6 µM). The MIC is more than 128 µg/mL with Haemophilus influenzae [16] (setting [19]) and more than 128 µg/mL in the experiment on Haemophilus influenzae [16] (alone, resistant to ampicillin, 5 wild-type strains).
